# pIC50: −log10 of the molar value.
# Target: TrkA (Homo sapiens (Human), UniProt P04629)
# Assay: TrkA kinase HTRF enzyme inhibition assay
# Type: biochemical
# Conditions: TrkA pre-incubated with 200 μM ATP
# Description: TrkA enzyme was obtained from Invitrogen (as catalog numbers PV3144, PV3616, and PV3617, respectively). Enzyme activity was measured in an HTRF® (homogeneous time resolved fluorescence) assay, which detects enzymatic phosphorylation of a biotinylated synthetic peptide substrate (an LCK peptide analog, biotin-ahx-[…], from Genemed Synthesis). Phosphorylation is assessed by HTRF® in the presence of an anti-phosphotyrosine antibody conjugated to Eu^3+ cryptate (Cisbio) as donor fluorophore, and streptavidin conjugated to allophycocyanin (ProZyme) as acceptor fluorophore. The HTRF® signal was detected at two different wavelengths (620 nm and 665 nm) which were used to calculate the fluorescence ratio.
# TrkA enzyme was titrated to a concentration optimized to ensure accurate measurement of the initial reaction rate. To allow the TrkA enzyme to undergo activation and auto-phosphorylation, a 20 minute pre-incubation with ATP was carried out (at twice the final targeted enzyme and ATP concentration) prior to addition of test compound and the peptide substrate.
# TrkA in vitro assays were performed by pre-incubating TrkA (2-10 nM) with ATP (200 μM) for 20 minutes at ambient temperature in 50 mM HEPES pH 7.4, 10 mM MgCl2, 2 mM MnCl2, 100 μM Na3VO4, 1 mM dithiothreitol, 0.01% BSA (bovine serum albumin). Then, to the activated Trk enzyme mixture was added the test compound in 2% dimethyl sulfoxide. After 10 minutes, the peptide substrate (125 nM) was added. After 1 hour, enzyme reactions were terminated by addition of equal reaction volumes of detection/stop reagent (containing 0.2 μg/mL anti-phosphotyrosine monoclonal antibody labeled with europium from Cisbio (catalog#PT66-K), and 4 μg/mL PhycoLink® Streptavidin-Allophycocyanin conjugate from ProZyme (catalog#PJ25S) in 60 mM EDTA in 40 mM HEPES pH 7.4, 480 mM KF, 0.01% Tween® 20 and 0.1% BSA bovine serum albumin) Reaction plates were stored at 4° C. overnight before reading the fluorescence ratio signal on a PerkinElmer EnVision™ fluorescence detector. Individual reaction wells were stopped at time points to obtain reaction rates. The test inhibitor compounds were assayed in duplicate, at half-log serial dilutions over a range of concentrations (e.g. starting at 50 μM or 5 μM as the high compound concentration). The percent Trk enzyme inhibition was calculated from the initial rates of the inhibited reactions relative to the uninhibited control. IC50 values were calculated by fitting the inhibition percent to the concentration of inhibitor [I] in the assay in equation 1 below, to solve for the IC50. Inhibition %=100[I]/([I]+[IC50]) equation 1
# Chain of TrkA (P04629 33-796): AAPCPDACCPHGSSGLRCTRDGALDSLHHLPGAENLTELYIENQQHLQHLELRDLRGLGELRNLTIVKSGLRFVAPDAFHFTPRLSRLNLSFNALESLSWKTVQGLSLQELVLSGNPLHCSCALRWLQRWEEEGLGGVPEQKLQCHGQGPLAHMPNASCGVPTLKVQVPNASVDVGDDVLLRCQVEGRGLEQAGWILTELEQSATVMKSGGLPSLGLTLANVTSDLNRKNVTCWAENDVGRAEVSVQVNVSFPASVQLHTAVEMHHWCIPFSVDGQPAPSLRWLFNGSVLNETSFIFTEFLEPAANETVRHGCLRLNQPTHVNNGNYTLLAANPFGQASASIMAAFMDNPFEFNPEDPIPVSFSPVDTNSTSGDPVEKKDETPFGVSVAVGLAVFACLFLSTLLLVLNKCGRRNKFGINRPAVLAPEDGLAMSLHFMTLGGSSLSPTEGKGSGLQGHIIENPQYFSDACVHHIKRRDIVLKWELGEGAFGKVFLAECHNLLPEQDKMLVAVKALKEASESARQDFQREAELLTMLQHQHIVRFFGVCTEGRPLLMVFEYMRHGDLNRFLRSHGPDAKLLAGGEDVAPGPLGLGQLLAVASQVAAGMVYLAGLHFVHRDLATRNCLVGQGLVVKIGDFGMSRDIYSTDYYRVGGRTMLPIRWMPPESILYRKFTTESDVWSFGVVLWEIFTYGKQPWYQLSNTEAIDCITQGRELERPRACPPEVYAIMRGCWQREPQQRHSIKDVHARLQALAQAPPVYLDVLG
row,SMILES,pIC50
1,"Cn1cc2cc(NC(=O)c3coc4c3C(=O)NCC4)ccc2n1 [Example 1, N-(2-methyl-2H-indazol-5-yl)-4-oxo-4,5,6,7-tetrahydrofuro[3,2-c]pyridine-3-carboxamide]",7.35
2,"O=C(Nc1ccc(N2CCOCC2)cc1)c1coc2c1C(=O)NCC2 [Example 3, N-[4-(morpholin-4-yl)phenyl]-4-oxo-4,5,6,7-tetrahydrofuro[3,2-c]pyridine-3-carboxamide]",6.76
3,"Cc1ccc(NC(=O)c2coc3c2C(=O)N(C)CC3)cc1 [Example 4, 5-methyl-N-(4-methylphenyl)-4-oxo-4,5,6,7-tetrahydrofuro[3,2-c]pyridine-3-carboxamide]",6.43
4,"COc1cc(N2CCN(C(=O)OC(C)(C)C)CC2)ccc1NC(=O)c1coc2c1C(=O)NCC2 [Example 5, tert-butyl 4-(3-methoxy-4-{[(4-oxo-4,5,6,7-tetrahydrofuro[3,2-c]pyridin-3-yl)carbonyl]amino}phenyl)piperazine-1-carboxylate]",7.26
5,"COc1nc(N2CCN(C)CC2)ccc1NC(=O)c1coc2c1C(=O)NCCC2 [Example 7, N-[2-methoxy-6-(4-methylpiperazin-1-yl)pyridin-3-yl]-4-oxo-5,6,7,8-tetrahydro-4H-furo[3,2-c]azepine-3-carboxamide]",6.67
6,"CCOc1nc(N2CCN(C(C)=O)CC2)ccc1NC(=O)c1coc2c1C(=O)N(CCOCc1ccccc1)CC2 [Example 8, N-[6-(4-acetylpiperazin-1-yl)-2-ethoxypyridin-3-yl]-5-[2-(benzyloxy)ethyl]-4-oxo-4,5,6,7-tetrahydrofuro[3,2-c]pyridine-3-carboxamide]",7.16
7,"CC(=O)N1CCN(c2ccc(NC(=O)c3coc4c3C(=O)NCC4)cc2)CC1 [Example 10, N-[4-(4-acetylpiperazin-1-yl)phenyl]-4-oxo-4,5,6,7-tetrahydrofuro[3,2-c]pyridine-3-carboxamide]",7.25
8,"Cn1ncc2cc(NC(=O)c3coc4c3C(=O)NCC4)ccc21 [Example 11, N-(1-methyl-1H-indazol-5-yl)-4-oxo-4,5,6,7-tetrahydrofuro[3,2-c]pyridine-3-carboxamide]",7.19
9,"O=C(Nc1ccc2[nH]cnc2c1)c1coc2c1C(=O)NCC2 [Example 12, N-(1H-benzimidazol-5-yl)-4-oxo-4,5,6,7-tetrahydrofuro[3,2-c]pyridine-3-carboxamide]",7.00
10,"NC(=O)c1ccc(NC(=O)c2coc3c2C(=O)NCC3)cc1 [Example 13, N-(4-carbamoylphenyl)-4-oxo-4,5,6,7-tetrahydrofuro[3,2-c]pyridine-3-carboxamide]",6.78
11,"O=C(Nc1ccc2[nH]ncc2c1)c1coc2c1C(=O)NCC2 [Example 14, N-(1H-indazol-5-yl)-4-oxo-4,5,6,7-tetrahydrofuro[3,2-c]pyridine-3-carboxamide]",6.96
12,"CN1CCN(c2ccc(NC(=O)c3coc4c3C(=O)NCC4)nc2)CC1 [Example 16, N-[5-(4-methylpiperazin-1-yl)pyridin-2-yl]-4-oxo-4,5,6,7-tetrahydrofuro[3,2-c]pyridine-3-carboxamide]",6.55
13,"CN1CCN(c2ccc(NC(=O)c3coc4c3C(=O)NCC4)cc2)CC1 [Example 17, N-[4-(4-methylpiperazin-1-yl)phenyl]-4-oxo-4,5,6,7-tetrahydrofuro[3,2-c]pyridine-3-carboxamide]",7.09
14,"COc1cc(N2CCN(C(C)=O)CC2)ccc1NC(=O)c1coc2c1C(=O)NCC2 [Example 18, N-[4-(4-acetylpiperazin-1-yl)-2-methoxyphenyl]-4-oxo-4,5,6,7-tetrahydrofuro[3,2-c]pyridine-3-carboxamide]",7.22
15,"CCOc1nc(N2CCN(C(C)=O)CC2)ccc1NC(=O)c1coc2c1C(=O)NCC2 [Example 19, N-[6-(4-acetylpiperazin-1-yl)-2-ethoxypyridin-3-yl]-4-oxo-4,5,6,7-tetrahydrofuro[3,2-c]pyridine-3-carboxamide]",7.79
16,"COCCOc1nc(N2CCN(C(C)=O)CC2)ccc1NC(=O)c1coc2c1C(=O)NCC2 [Example 20, N-[6-(4-acetylpiperazin-1-yl)-2-(2-methoxyethoxyl)pyridin-3-yl]-4-oxo-4,5,6,7-tetrahydrofuro[3,2-c]pyridine-3-carboxamide]",7.59
17,"CC(=O)N1CCN(c2ccc(NC(=O)c3coc4c3C(=O)NCC4)c(OC3COC3)n2)CC1 [Example 21, N-[6-(4-acetylpiperazin-1-yl)-2-(oxetan-3-yloxy)pyridin-3-yl]-4-oxo-4,5,6,7-tetrahydrofuro[3,2-c]pyridine-3-carboxamide]",7.67

row,SMILES,pIC50
1,"CN1CCN(c2ccc(NC(=O)c3coc4c3C(=O)N(C)CC4)cc2)CC1 [Example 22, 5-methyl-N-[4-(4-methylpiperazin-1-yl)phenyl]-4-oxo-4,5,6,7-tetrahydrofuro[3,2-c]pyridine-3-carboxamide]",6.70
2,"CN1CCc2occ(C(=O)Nc3ccc4[nH]ncc4c3)c2C1=O [Example 23, N-(1H-indazol-5-yl)-5-methyl-4-oxo-4,5,6,7-tetrahydrofuro[3,2-c]pyridine-3-carboxamide]",6.59
3,"CN1CCc2occ(C(=O)Nc3ccc4c(cnn4C)c3)c2C1=O [Example 24, 5-methyl-N-(1-methyl-1H-indazol-5-yl)-4-oxo-4,5,6,7-tetrahydrofuro[3,2-c]pyridine-3-carboxamide]",6.72
4,"CN1CCc2occ(C(=O)Nc3ccc(N4CCOCC4)cc3)c2C1=O [Example 25, 5-methyl-N-[4-(morpholin-4-yl)phenyl]-4-oxo-4,5,6,7-tetrahydrofuro[3,2-c]pyridine-3-carboxamide]",6.95
5,"CN1CCc2occ(C(=O)Nc3ccc(C(N)=O)cc3)c2C1=O [Example 26, N-(4-carbamoylphenyl)-5-methyl-4-oxo-4,5,6,7-tetrahydrofuro[3,2-c]pyridine-3-carboxamide]",6.69
6,"CN1CCc2occ(C(=O)Nc3ccc4[nH]cnc4c3)c2C1=O [Example 27, N-(1H-benzimidazol-5-yl)-5-methyl-4-oxo-4,5,6,7-tetrahydrofuro[3,2-c]pyridine-3-carboxamide]",6.37
7,"CC(=O)N1CCN(c2ccc(NC(=O)c3coc4c3C(=O)N(C)CC4)cc2)CC1 [Example 28, N-[4-(4-acetylpiperazin-1-yl)phenyl]-5-methyl-4-oxo-4,5,6,7-tetrahydrofuro[3,2-c]pyridine-3-carboxamide]",6.96
8,"Cc1nc2ccc(NC(=O)c3coc4c3C(=O)N(C)CC4)cc2s1 [Example 29, 5-methyl-N-(2-methyl-1,3-benzothiazol-6-yl)-4-oxo-4,5,6,7-tetrahydrofuro[3,2-c]pyridine-3-carboxamide]",6.77
9,"Cc1ccc(NC(=O)c2coc3c2C(=O)NCC3)cc1 [Example 30, N-(4-methylphenyl)-4-oxo-4,5,6,7-tetrahydrofuro[3,2-c]pyridine-3-carboxamide]",6.28
10,"O=C(Nc1ccc(O)cc1)c1coc2c1C(=O)NCC2 [Example 31, N-(4-hydroxyphenyl)-4-oxo-4,5,6,7-tetrahydrofuro[3,2-c]pyridine-3-carboxamide]",6.41
11,"CC(=O)Nc1ccc(NC(=O)c2coc3c2C(=O)NCC3)cc1 [Example 32, N-(4-acetamidophenyl)-4-oxo-4,5,6,7-tetrahydrofuro[3,2-c]pyridine-3-carboxamide]",6.26
12,"O=C(Nc1ccc2ncccc2c1)c1coc2c1C(=O)NCC2 [Example 33, 4-oxo-N-(quinolin-6-yl)-4,5,6,7-tetrahydrofuro[3,2-c]pyridine-3-carboxamide]",6.95
13,"O=C(Nc1ccc2cn[nH]c2c1)c1coc2c1C(=O)NCC2 [Example 34, N-(1H-indazol-6-yl)-4-oxo-4,5,6,7-tetrahydrofuro[3,2-c]pyridine-3-carboxamide]",6.04
14,"COc1ccc(NC(=O)c2coc3c2C(=O)NCC3)c(OC)n1 [Example 35, N-(2,6-dimethoxypyridin-3-yl)-4-oxo-4,5,6,7-tetrahydrofuro[3,2-c]pyridine-3-carboxamide]",6.93
15,"O=C(Nc1ccon1)c1coc2c1C(=O)NCC2 [Example 36, N-(1,2-oxazol-3-yl)-4-oxo-4,5,6,7-tetrahydrofuro[3,2-c]pyridine-3-carboxamide]",5.10
16,"O=C(Nc1cnccn1)c1coc2c1C(=O)NCC2 [Example 37, 4-oxo-N-(pyrazin-2-yl)-4,5,6,7-tetrahydrofuro[3,2-c]pyridine-3-carboxamide]",5.49
17,"Cc1cc(NC(=O)c2coc3c2C(=O)NCC3)no1 [Example 38, N-(5-methyl-1,2-oxazol-3-yl)-4-oxo-4,5,6,7-tetrahydrofuro[3,2-c]pyridine-3-carboxamide]",5.76

# Reference: US9777020B2, “Furo-3-carboxamide derivatives and methods of use” (AbbVie Inc., priority 2014, dated 2017)
